10 compounds from ChEMBL document CHEMBL1201862, “PubChem BioAssay data set” (2004) can be followed below.

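Grown in 96-well plates, cells were treated for 48 hours with each compound at five concentrations. Insufficient inhibition: endpoint recorded as highest concentration tested. At the GI50, growth is halved.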 Calls of active or inactive are those of the source. No stated cut-off is given here; in the data, active = GI50 up to about 1.1 µM and inactive = higher.

Test systems include SK-OV-3; OVCAR-3; MDA-N; PC-3; SR; NCI-H460; 786-0; SW-620; HCC 2998; SK-MEL-5; SN12C; NCI/ADR-RES; SK-MEL-2; UACC-62; MCF7; CAKI-1; RPMI-8226; MDA-MB-231; MOLT-4; SF-295.
Assay in all cases: NCI anticancer screen, dose series, 48 h

As to `Cn1c2ccccc2c2ccc3c(c21)C(=O)c1ccc2c4ccccc4n(C)c2c1C3=O`, the GI50 with SK-OV-3 is > 100 µM (inactive); in the experiment with OVCAR-3 it was > 65 µM (inactive); in the experiment with MDA-N, > 100 µM (inactive); in the experiment on PC-3 it was > 100 µM (inactive); in the experiment with SR it was > 100 µM (inactive); with NCI-H460 it was > 100 µM (inactive). Moreover, the GI50 in the experiment with 786-0 is 99.1 µM (inactive); in the experiment on SW-620 it was > 100 µM (inactive); in the experiment with HCC 2998 it was > 100 µM (inactive); with SK-MEL-5, > 100 µM (inactive); in the experiment with SN12C, > 100 µM (inactive); in the experiment on NCI/ADR-RES, > 100 µM (inactive). The GI50 with SK-MEL-2 was > 100 µM (inactive); in the experiment with UACC-62 it was > 100 µM (inactive); with MCF7, 97.1 µM (inactive); with CAKI-1, > 100 µM (inactive); in the experiment with RPMI-8226, > 100 µM (inactive); with MDA-MB-231, > 100 µM (inactive). The GI50 with MOLT-4 and in the experiment with SF-295 was > 100 µM (inactive) throughout.
`COc1ccc(C2c3cc4c(cc3OC(N3CCOCC3)C2C)OCO4)c(OC)c1` (stereo unspecified): the GI50 was 4.43 µM (inactive) with SK-OV-3; 3.48 µM (inactive) in the experiment with OVCAR-3; 1.64 µM (inactive) in the experiment with MDA-N; 7.6 µM (inactive) in the experiment on PC-3; 4.21 µM (inactive) with SR; 5.12 µM (inactive) in the experiment on NCI-H460. Besides, the GI50 in the experiment on 786-0 was 4.63 µM (inactive); in the experiment on SW-620, 3.72 µM (inactive); in the experiment on HCC 2998 it was 4.17 µM (inactive); in the experiment on SK-MEL-5 it was 2.81 µM (inactive); with SN12C, 10.7 µM (inactive); with NCI/ADR-RES, 2.71 µM (inactive). Besides, the GI50 with SK-MEL-2 was 4.95 µM (inactive); in the experiment with UACC-62 it was 5.56 µM (inactive); with MCF7, 4.59 µM (inactive); in the experiment with CAKI-1, 4.47 µM (inactive); in the experiment on RPMI-8226 it was 3.15 µM (inactive); with MDA-MB-231 it was 8.69 µM (inactive). Also, the GI50 in the experiment with MOLT-4 was 3.58 µM (inactive); in the experiment on SF-295, 3.48 µM (inactive).
`COc1ccc2[nH]c3c(C)c4ncccc4c(C)c3c2c1`: the GI50 in the experiment with SK-OV-3 was > 10 µM (inactive); with OVCAR-3, 2.71 µM (inactive); with MDA-N, 6.81 µM (inactive); in the experiment with PC-3, 6.11 µM (inactive); in the experiment on SR, 5.22 µM (inactive); with NCI-H460 it was 2.12 µM (inactive). Moreover, the GI50 with 786-0 is 1.52 µM (inactive); with SW-620, 1.98 µM (inactive); with HCC 2998, 8.97 µM (inactive); with SK-MEL-5, > 10 µM (inactive); in the experiment on SN12C it was 4.78 µM (inactive); in the experiment with NCI/ADR-RES it was 3.12 µM (inactive). Besides, the GI50 with SK-MEL-2 is > 10 µM (inactive); in the experiment on UACC-62, > 10 µM (inactive); in the experiment with MCF7, 2.02 µM (inactive); with CAKI-1, > 10 µM (inactive); in the experiment on RPMI-8226, 3.44 µM (inactive); in the experiment on MDA-MB-231, > 10 µM (inactive). For the same compound, the GI50 in the experiment with MOLT-4 was 4.04 µM (inactive); in the experiment with SF-295, 2.43 µM (inactive).
In the case of `C[C@]1(O)O[C@@H]2OCC[C@@H]2C2=C1C(=O)c1ccccc1C2=O`, the GI50 with SK-OV-3 is 21.9 µM (inactive); with OVCAR-3 it was 9.66 µM (inactive); in the experiment with MDA-N it was 6.15 µM (inactive); with PC-3 it was 22.1 µM (inactive); with SR, 10.7 µM (inactive); in the experiment with NCI-H460, 16 µM (inactive). For the same compound, the GI50 is 14.4 µM (inactive) in the experiment on 786-0; 18.4 µM (inactive) in the experiment on SW-620; 17.3 µM (inactive) with HCC 2998; 12.4 µM (inactive) with SK-MEL-5; 23 µM (inactive) in the experiment with SN12C; 19.7 µM (inactive) in the experiment with NCI/ADR-RES. Moreover, the GI50 in the experiment on SK-MEL-2 is 17.4 µM (inactive); in the experiment with UACC-62, 19.2 µM (inactive); in the experiment with MCF7, 6.46 µM (inactive); in the experiment on CAKI-1, 20.1 µM (inactive); with RPMI-8226, 3.62 µM (inactive); in the experiment on MDA-MB-231 it was 21.2 µM (inactive). Further, the GI50 in the experiment on MOLT-4 was 5.04 µM (inactive); in the experiment on SF-295, 18.7 µM (inactive).
In the case of `O=C(/C=C/c1ccc(O)c(O)c1)NC(COC(=O)/C=C/c1ccc(O)c(O)c1)C(=O)O` (stereo unspecified), the GI50 in the experiment on SK-OV-3, in the experiment on OVCAR-3, with MDA-N, in the experiment with PC-3, in the experiment with SR and in the experiment on NCI-H460 was > 100 µM (inactive) throughout. Also, the GI50 in the experiment on 786-0, with SW-620, with HCC 2998, with SK-MEL-5, in the experiment on SN12C and with NCI/ADR-RES was > 100 µM (inactive) in each case. Further, the GI50 in the experiment with SK-MEL-2, in the experiment with UACC-62, with MCF7, with CAKI-1, in the experiment with RPMI-8226 and with MDA-MB-231 was > 100 µM (inactive) each time. The GI50 in the experiment with MOLT-4 and in the experiment on SF-295 was > 100 µM (inactive) throughout.
For `CC1(C)CCC(=O)NC1CC(=O)CC1NC(=O)CCC1(C)C` (stereo unspecified), the GI50 in the experiment with SK-OV-3 was > 100 µM (inactive); in the experiment on OVCAR-3, > 100 µM (inactive); with MDA-N, > 100 µM (inactive); in the experiment with PC-3, > 100 µM (inactive); in the experiment on SR it was 7.08 µM (inactive); in the experiment on NCI-H460 it was > 100 µM (inactive). Further, the GI50 with 786-0, in the experiment on SW-620, in the experiment on HCC 2998, in the experiment with SK-MEL-5, with SN12C and with NCI/ADR-RES was > 100 µM (inactive) throughout. The GI50 with SK-MEL-2, in the experiment with UACC-62, with MCF7, in the experiment with CAKI-1, in the experiment on RPMI-8226 and with MDA-MB-231 was > 100 µM (inactive) each time. The GI50 in the experiment on MOLT-4 and in the experiment on SF-295 was > 100 µM (inactive) each time.
For `CC1(CNCc2ccccc2)CC(CCc2ccccc2)N(C(=O)c2ccc([N+](=O)[O-])cc2)C1Cc1ccc(O)cc1` (stereo unspecified), the GI50 with SK-OV-3 was 17.1 µM (inactive); with OVCAR-3, 12.1 µM (inactive); with MDA-N it was 12.3 µM (inactive); with PC-3 it was 10.7 µM (inactive); in the experiment with SR it was 6.75 µM (inactive); in the experiment on NCI-H460, 14 µM (inactive). Also, the GI50 is 11.8 µM (inactive) in the experiment with 786-0; 21.5 µM (inactive) in the experiment with SW-620; 13.1 µM (inactive) in the experiment on HCC 2998; 5.35 µM (inactive) in the experiment with SK-MEL-5; 6.76 µM (inactive) in the experiment with SN12C; 14.7 µM (inactive) in the experiment with NCI/ADR-RES. Also, the GI50 with SK-MEL-2 is 13.6 µM (inactive); with UACC-62, 13.1 µM (inactive); in the experiment on MCF7 it was 5.24 µM (inactive); in the experiment on CAKI-1 it was 12.9 µM (inactive); in the experiment with RPMI-8226, 17.3 µM (inactive); in the experiment with MDA-MB-231 it was 10.3 µM (inactive). Besides, the GI50 in the experiment on MOLT-4 is 13.2 µM (inactive); in the experiment with SF-295 it was 11.2 µM (inactive).
On to `O=C1/C(=N/O)Cc2c(Br)ccc(Br)c21`, for which the GI50 in the experiment with SK-OV-3 was 37.2 µM (inactive); with OVCAR-3, 22.3 µM (inactive); in the experiment on MDA-N, 48.3 µM (inactive); in the experiment on PC-3, 27.8 µM (inactive); with SR, 28.4 µM (inactive); in the experiment with NCI-H460, 37.6 µM (inactive). Besides, the GI50 was 74 µM (inactive) in the experiment with 786-0; 63.5 µM (inactive) with SW-620; 24.2 µM (inactive) with HCC 2998; 32.4 µM (inactive) in the experiment with SK-MEL-5; 35.7 µM (inactive) in the experiment with NCI/ADR-RES; 17.9 µM (inactive) in the experiment with SK-MEL-2. For the same compound, the GI50 was 36.1 µM (inactive) with MCF7; 42.4 µM (inactive) with CAKI-1; 24.4 µM (inactive) in the experiment on RPMI-8226; 46.9 µM (inactive) in the experiment with MDA-MB-231; 25.4 µM (inactive) with MOLT-4; 34.6 µM (inactive) in the experiment with SF-295.
`CC(=O)O[C@@]12CO[C@@H]1C[C@@H](O)[C@@]1(C)C(=O)[C@H](O)C3=C(C)[C@@H](OC(=O)[C@H](O)[C@@H](NC(=O)c4ccccc4)c4ccccc4)C[C@@](O)([C@@H](OC(=O)c4ccccc4)C12)C3(C)C` (stereo partly specified): the GI50 in the experiment on SK-OV-3 was 0.026 µM (active); in the experiment on OVCAR-3, < 0.0162 µM (active); in the experiment with MDA-N it was < 0.01 µM (active); in the experiment on PC-3 it was 0.016 µM (active); in the experiment with SR, 0.0438 µM (active); in the experiment with NCI-H460, 0.0217 µM (active). Also, the GI50 in the experiment with 786-0 was 0.0628 µM (active); in the experiment with SW-620 it was < 0.01 µM (active); in the experiment with HCC 2998, 0.0212 µM (active); with SN12C, 0.0184 µM (active); with NCI/ADR-RES, 20.8 µM (inactive); in the experiment with SK-MEL-2, < 0.01 µM (active). The GI50 is < 0.01 µM (active) with UACC-62; < 0.01 µM (active) in the experiment with MCF7; 1.82 µM (inactive) in the experiment on CAKI-1; < 0.01 µM (active) with RPMI-8226; 0.0408 µM (active) in the experiment with MDA-MB-231; < 0.01 µM (active) in the experiment with MOLT-4. Also, the GI50 in the experiment with SF-295 was 0.268 µM (active).
Turning to `O=c1c2ccccc2nc(-c2ccccc2)n1O`, the GI50 with SK-OV-3 was > 100 µM (inactive); in the experiment with OVCAR-3 it was 51.6 µM (inactive); in the experiment with MDA-N it was > 100 µM (inactive); in the experiment on PC-3, > 100 µM (inactive); with SR, 23.3 µM (inactive); with NCI-H460, 64.1 µM (inactive). Moreover, the GI50 in the experiment on 786-0 is > 100 µM (inactive); in the experiment with SW-620, > 100 µM (inactive); in the experiment on HCC 2998, > 100 µM (inactive); with SK-MEL-5, 70.8 µM (inactive); with SN12C, > 100 µM (inactive); in the experiment with NCI/ADR-RES it was 32.4 µM (inactive). In addition, the GI50 was > 100 µM (inactive) in the experiment with SK-MEL-2; > 100 µM (inactive) with UACC-62; 95.9 µM (inactive) in the experiment on MCF7; 8.47 µM (inactive) in the experiment with CAKI-1; 28.6 µM (inactive) in the experiment with RPMI-8226; > 100 µM (inactive) in the experiment with MDA-MB-231. The GI50 in the experiment on SF-295 is 35.3 µM (inactive).
